One block for each compound: values may come before it.
Tests used:
Assay type in all cases: cell-based
TRPM4 [1] = target: T1, TRPM4 (Homo sapiens, UniProt Q8TD43)
TRPM4 [2] = target: T1, TRPM4; assay: Na+ influx screening assay
TRPM5 = target: T2, TRPM5 (Homo sapiens, UniProt Q9NZQ8); assay: Excised membrane voltage clamp recordings on HEK293 cells expressing TRPM5; details: excised patches, 50 μM free Ca2+, +100 mV
T2 sequence (Q9NZQ8 1-1165): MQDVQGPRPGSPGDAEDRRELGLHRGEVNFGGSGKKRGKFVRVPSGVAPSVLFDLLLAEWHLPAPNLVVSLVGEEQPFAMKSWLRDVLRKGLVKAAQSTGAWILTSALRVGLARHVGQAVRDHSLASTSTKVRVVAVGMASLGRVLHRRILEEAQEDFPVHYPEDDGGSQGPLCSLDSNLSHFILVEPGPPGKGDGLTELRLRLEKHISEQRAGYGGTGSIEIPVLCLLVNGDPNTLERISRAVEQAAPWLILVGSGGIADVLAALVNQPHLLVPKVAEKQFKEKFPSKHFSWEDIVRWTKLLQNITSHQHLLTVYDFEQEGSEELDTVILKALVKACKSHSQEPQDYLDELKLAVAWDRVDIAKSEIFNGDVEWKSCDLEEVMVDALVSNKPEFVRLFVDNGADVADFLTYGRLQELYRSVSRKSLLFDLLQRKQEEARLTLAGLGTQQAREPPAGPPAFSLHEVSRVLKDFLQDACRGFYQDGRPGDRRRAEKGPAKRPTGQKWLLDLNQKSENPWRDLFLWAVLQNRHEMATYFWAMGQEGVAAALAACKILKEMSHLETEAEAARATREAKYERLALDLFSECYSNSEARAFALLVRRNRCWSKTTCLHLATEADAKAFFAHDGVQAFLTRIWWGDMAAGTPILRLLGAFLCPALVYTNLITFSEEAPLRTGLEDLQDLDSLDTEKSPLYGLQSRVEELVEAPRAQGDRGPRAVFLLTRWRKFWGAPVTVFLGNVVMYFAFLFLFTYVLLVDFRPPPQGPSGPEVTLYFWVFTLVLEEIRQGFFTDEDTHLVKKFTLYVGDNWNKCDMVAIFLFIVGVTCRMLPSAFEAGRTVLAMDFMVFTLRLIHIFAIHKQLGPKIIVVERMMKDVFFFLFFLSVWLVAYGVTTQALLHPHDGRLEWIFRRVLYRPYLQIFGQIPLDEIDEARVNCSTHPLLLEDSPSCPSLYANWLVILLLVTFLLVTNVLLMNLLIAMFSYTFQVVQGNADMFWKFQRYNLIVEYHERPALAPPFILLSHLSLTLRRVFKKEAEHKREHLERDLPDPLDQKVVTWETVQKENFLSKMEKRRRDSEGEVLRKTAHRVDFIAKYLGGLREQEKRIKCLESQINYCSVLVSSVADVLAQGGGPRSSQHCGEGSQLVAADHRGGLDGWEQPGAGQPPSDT

TRPM4 A432T = TRPM4 A432T (Homo sapiens, UniProt Q8TD43, A432T); assay: Western blot of total and surface expression of TRPM4 A432T variant; details: 50 μM overnight, HEK293
Chain of TRPM4 A432T (Q8TD43 whole entry A432T): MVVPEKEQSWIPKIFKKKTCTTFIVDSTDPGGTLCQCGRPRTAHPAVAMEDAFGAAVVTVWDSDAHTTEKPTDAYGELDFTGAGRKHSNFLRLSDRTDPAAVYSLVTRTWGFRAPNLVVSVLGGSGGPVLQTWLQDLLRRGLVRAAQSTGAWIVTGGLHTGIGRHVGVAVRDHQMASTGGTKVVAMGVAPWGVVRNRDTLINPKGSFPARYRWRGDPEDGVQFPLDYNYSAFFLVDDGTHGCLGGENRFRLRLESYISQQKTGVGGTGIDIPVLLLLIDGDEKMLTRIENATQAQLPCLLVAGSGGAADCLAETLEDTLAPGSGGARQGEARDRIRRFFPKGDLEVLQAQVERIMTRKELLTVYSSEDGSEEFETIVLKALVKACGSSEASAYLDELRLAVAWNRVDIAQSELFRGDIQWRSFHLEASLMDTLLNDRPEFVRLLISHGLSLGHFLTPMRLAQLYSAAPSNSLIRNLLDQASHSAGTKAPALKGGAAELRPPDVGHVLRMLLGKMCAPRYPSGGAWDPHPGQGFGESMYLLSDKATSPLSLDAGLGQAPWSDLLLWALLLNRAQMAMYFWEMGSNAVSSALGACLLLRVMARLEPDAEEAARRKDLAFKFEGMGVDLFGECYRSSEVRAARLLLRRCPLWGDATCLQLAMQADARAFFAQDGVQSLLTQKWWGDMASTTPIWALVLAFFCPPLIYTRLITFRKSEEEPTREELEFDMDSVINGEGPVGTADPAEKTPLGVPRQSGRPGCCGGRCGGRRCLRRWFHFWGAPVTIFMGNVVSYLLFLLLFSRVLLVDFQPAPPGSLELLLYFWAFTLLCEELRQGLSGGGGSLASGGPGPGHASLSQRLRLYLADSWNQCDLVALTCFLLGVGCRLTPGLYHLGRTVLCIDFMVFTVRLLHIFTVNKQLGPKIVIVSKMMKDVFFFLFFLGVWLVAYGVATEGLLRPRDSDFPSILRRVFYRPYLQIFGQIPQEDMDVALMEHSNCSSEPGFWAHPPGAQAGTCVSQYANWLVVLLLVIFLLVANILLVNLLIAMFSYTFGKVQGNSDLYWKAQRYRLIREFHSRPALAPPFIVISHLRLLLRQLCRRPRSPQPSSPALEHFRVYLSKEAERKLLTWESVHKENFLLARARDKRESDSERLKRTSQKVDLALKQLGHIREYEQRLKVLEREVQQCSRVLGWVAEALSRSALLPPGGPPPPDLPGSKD

T1 sequence (Q8TD43 whole entry): as the sequence (Q8TD43 whole entry A432T) above, with T432A counted along it

Structure (SMILES): Oc1cc2ccccc2c2ccccc12 [9-phenanthrol, reference compound]
- IC50 (TRPM4 [1]): 17 ± 2.8 µM

- effect on TRPM5 current (TRPM5): variable potentiating effect
Structure (SMILES): Cc1cc(Cl)ccc1OC(C)C(=O)Nc1cc(Cl)ccc1C(=O)O (stereo not shown) [Compound 4]
- IC50 (TRPM4 [1]): 1 ± 0.2 µM
- inhibition of TRPM4 current on application to the cytosolic side (TRPM4 [1]; 1 μM on cytosolic side of excised patches, washout): reversible inhibition
- inhibitory activity on TRPM4-mediated Na+ influx, hit confirmation (TRPM4 [2]; 5 μM, repurchased solid samples): confirmed their inhibitory activity

Structure (SMILES): O=C(COc1ccccc1Cl)Nc1cc(Br)ccc1C(=O)O [Compound 11]
- IC50 (TRPM4 [1]): 1.6 ± 0.5 µM

Structure (SMILES): Cc1cc(Cl)ccc1OCC(=O)Nc1cc(Cl)ccc1C(=O)O [Compound 51]
- rescue of A432T total and surface expression (TRPM4 A432T): did not restore the expression
- TRPM4 inhibitory activity in words (SAR) (TRPM4 [2]; Na+ influx, Supporting Information Table S3 / text): no inhibitory activity

Structure (SMILES): O=C(O)c1ccccc1Nc1cccc(C(F)(F)F)c1 [FFA, flufenamic acid, reference compound]
- IC50 (TRPM4 [1]): 9.2 ± 1.2 µM

- effect on TRPM5 current (positive control) (TRPM5; 20 μM): inhibited TRPM5 current
Structure (SMILES): O=P(c1ccccc1)(c1ccccc1)c1ccccc1 [TPPO, triphenylphosphine oxide, reference compound]
